From the NIST ThermoML archive (doi:10.1021/je301014d)
± gives the expanded uncertainty stated by the source.

How the values were obtained:
[1] = Crystal; DTA
[2] = Molar enthalpy of transition or fusion; details: Crystal; DSC

Row | Normal melting temperature [1] [°C] | Molar enthalpy of transition or fusion [2] [kcal/mol] | Compound
1 | 97.23 ± 1.1 | 3.87 ± 0.0956 | C[C@H]1OC(=O)[C@@H](C)OC1=O [(3R,6R)-3,6-dimethyl-1,4-dioxane-2,5-dione]
2 | 97.82 ± 1.1 | 3.87 ± 0.0956 | C[C@@H]1OC(=O)[C@H](C)OC1=O [(3S,6S)-3,6-dimethyl-1,4-dioxane-2,5-dione]
